In ChEMBL document CHEMBL1201862, “PubChem BioAssay data set” (2004):
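Interpolation was linear, between the two tested concentrations surrounding the appropriate level; five concentrations were tested over 48 hours in 96-well plates. GI50 is the concentration that inhibits growth by half.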 The source made the active and inactive calls. Rule as the data show it: active = GI50 up to about 1.1 µM and inactive = higher.

Key:
Experiment in all cases: DTP human tumour cell line panel, 48 h
SK-MEL-5 = tested on: SK-MEL-5
EKVX = tested on: EKVX
M19-MEL = tested on: M19-MEL
M14 = tested on: M14
HCT-15 = tested on: HCT-15
SN12C = tested on: SN12C
SF-295 = tested on: SF-295
SK-MEL-2 = tested on: SK-MEL-2
LOX IMVI = tested on: LOX IMVI
RPMI-8226 = tested on: RPMI-8226
A498 = tested on: A498
HOP-62 = tested on: HOP-62
SNB-78 = tested on: SNB-78
DMS-114 = tested on: DMS-114
DLD-1 = tested on: DLD-1
HCC 2998 = tested on: HCC 2998
SK-MEL-28 = tested on: SK-MEL-28
DMS-273 = tested on: DMS-273
HCT-116 = tested on: HCT-116
NCI-H226 = tested on: NCI-H226
NCI-H23 = tested on: NCI-H23
OVCAR-4 = tested on: OVCAR-4
KM12 = tested on: KM12
SK-OV-3 = tested on: SK-OV-3
A549 = tested on: A549
LXFL 529 = tested on: LXFL 529
HT-29 = tested on: HT-29
UACC-257 = tested on: UACC-257
786-0 = tested on: 786-0
MOLT-4 = tested on: MOLT-4
ACHN = tested on: ACHN
OVCAR-3 = tested on: OVCAR-3
COLO 205 = tested on: COLO 205
HOP-92 = tested on: HOP-92
IGROV-1 = tested on: IGROV-1
UO-31 = tested on: UO-31
SF-539 = tested on: SF-539
U-251 = tested on: U-251
XF498 = tested on: XF498
SF-268 = tested on: SF-268
TK-10 = tested on: TK-10
NCI-H460 = tested on: NCI-H460
SNB-75 = tested on: SNB-75
OVCAR-8 = tested on: OVCAR-8
SR = tested on: SR
CCRF-CEM = tested on: CCRF-CEM
Malme-3M = tested on: Malme-3M
KM-20L2 = tested on: KM-20L2
NCI-H522 = tested on: NCI-H522
HL-60 = tested on: HL-60
OVCAR-5 = tested on: OVCAR-5
SNB-19 = tested on: SNB-19
K562 = tested on: K562
CAKI-1 = tested on: CAKI-1
RXF 393 = tested on: RXF 393
SW-620 = tested on: SW-620

O=C(CSC(=S)N1CCOCC1)Nc1nc2c(s1)CCCC2
GI50 (SK-MEL-5): 35.5 µM (inactive) | GI50 (EKVX): 99.5 µM (inactive) | GI50 (M19-MEL): 92.5 µM (inactive) | GI50 (M14): > 100 µM (inactive) | GI50 (HCT-15): > 100 µM | GI50 (SN12C): > 100 µM (inactive) | GI50 (SF-295): > 100 µM (inactive) | GI50 (SK-MEL-2): > 100 µM (inactive) | GI50 (LOX IMVI): > 100 µM (inactive) | GI50 (RPMI-8226): > 100 µM (inactive) | GI50 (A498): > 100 µM (inactive) | GI50 (HOP-62): > 100 µM (inactive) | GI50 (SNB-78): > 100 µM (inactive) | GI50 (DMS-114): 30.1 µM (inactive) | GI50 (DLD-1): > 100 µM (inactive) | GI50 (HCC 2998): 24.1 µM (inactive) | GI50 (SK-MEL-28): > 100 µM (inactive) | GI50 (DMS-273): > 100 µM (inactive) | GI50 (HCT-116): > 100 µM (inactive) | GI50 (NCI-H226): > 100 µM (inactive) | GI50 (NCI-H23): 97.7 µM (inactive) | GI50 (OVCAR-4): > 100 µM (inactive) | GI50 (KM12): > 100 µM (inactive) | GI50 (SK-OV-3): > 100 µM (inactive) | GI50 (A549): > 100 µM (inactive) | GI50 (LXFL 529): > 100 µM (inactive) | GI50 (HT-29): > 100 µM (inactive) | GI50 (UACC-257): 45.7 µM (inactive) | GI50 (786-0): 90.2 µM (inactive) | GI50 (MOLT-4): > 100 µM (inactive) | GI50 (ACHN): > 100 µM (inactive) | GI50 (OVCAR-3): 51.9 µM (inactive) | GI50 (COLO 205): > 100 µM (inactive) | GI50 (HOP-92): 23.9 µM (inactive) | GI50 (IGROV-1): > 100 µM (inactive) | GI50 (UO-31): 41.4 µM (inactive) | GI50 (SF-539): > 100 µM (inactive) | GI50 (U-251): > 100 µM (inactive) | GI50 (XF498): 50.1 µM (inactive) | GI50 (SF-268): > 100 µM (inactive) | GI50 (TK-10): > 100 µM (inactive) | GI50 (NCI-H460): > 100 µM (inactive) | GI50 (SNB-75): > 100 µM (inactive) | GI50 (OVCAR-8): > 100 µM (inactive) | GI50 (SR): 34.2 µM (inactive) | GI50 (CCRF-CEM): 45.8 µM (inactive) | GI50 (Malme-3M): 45.3 µM (inactive) | GI50 (KM-20L2): > 100 µM (inactive) | GI50 (NCI-H522): 27.8 µM (inactive) | GI50 (HL-60): 27.7 µM (inactive) | GI50 (OVCAR-5): > 100 µM (inactive)

CCCCCCn1c(SCC)c2ccccc2c1-c1nc(F)nc(F)n1
GI50 (SNB-19): > 100 µM (inactive) | GI50 (SK-MEL-5): > 100 µM (inactive) | GI50 (K562): > 100 µM (inactive) | GI50 (EKVX): > 100 µM (inactive) | GI50 (M19-MEL): > 100 µM (inactive) | GI50 (M14): > 100 µM (inactive) | GI50 (HCT-15): > 100 µM | GI50 (SN12C): > 100 µM (inactive) | GI50 (SF-295): > 100 µM (inactive) | GI50 (CAKI-1): > 100 µM (inactive) | GI50 (SK-MEL-2): > 100 µM (inactive) | GI50 (LOX IMVI): > 100 µM (inactive) | GI50 (RPMI-8226): > 100 µM (inactive) | GI50 (HOP-62): > 100 µM (inactive) | GI50 (SNB-78): > 100 µM (inactive) | GI50 (DMS-114): > 100 µM (inactive) | GI50 (DLD-1): > 100 µM (inactive) | GI50 (HCC 2998): > 100 µM (inactive) | GI50 (SK-MEL-28): > 100 µM (inactive) | GI50 (DMS-273): > 100 µM (inactive) | GI50 (HCT-116): > 100 µM (inactive) | GI50 (NCI-H226): > 100 µM (inactive) | GI50 (NCI-H23): > 100 µM (inactive) | GI50 (OVCAR-4): > 100 µM (inactive) | GI50 (KM12): > 100 µM (inactive) | GI50 (SK-OV-3): > 100 µM (inactive) | GI50 (A549): > 100 µM (inactive) | GI50 (LXFL 529): > 100 µM (inactive) | GI50 (HT-29): > 100 µM (inactive) | GI50 (UACC-257): > 100 µM (inactive) | GI50 (786-0): > 100 µM (inactive) | GI50 (MOLT-4): > 100 µM (inactive) | GI50 (ACHN): > 100 µM (inactive) | GI50 (OVCAR-3): > 100 µM (inactive) | GI50 (COLO 205): > 100 µM (inactive) | GI50 (HOP-92): > 100 µM (inactive) | GI50 (IGROV-1): > 100 µM (inactive) | GI50 (UO-31): > 100 µM (inactive) | GI50 (SF-539): > 100 µM (inactive) | GI50 (U-251): > 100 µM (inactive) | GI50 (XF498): > 100 µM (inactive) | GI50 (RXF 393): > 100 µM (inactive) | GI50 (SF-268): > 100 µM (inactive) | GI50 (TK-10): > 100 µM (inactive) | GI50 (NCI-H460): > 100 µM (inactive) | GI50 (SNB-75): 73.5 µM (inactive) | GI50 (OVCAR-8): > 100 µM (inactive) | GI50 (SR): 88.7 µM (inactive) | GI50 (CCRF-CEM): 36 µM (inactive) | GI50 (Malme-3M): > 100 µM (inactive) | GI50 (KM-20L2): > 100 µM (inactive) | GI50 (NCI-H522): > 100 µM (inactive) | GI50 (HL-60): > 100 µM (inactive) | GI50 (SW-620): > 100 µM (inactive) | GI50 (OVCAR-5): > 100 µM (inactive)
